Tests used:
[1] = xn = mol fraction of the nth substance listed; conditions: 303.15 K, Maximal bubble pressure
[2] = refractive index (Na D-line) (dimensionless); conditions: 298.15 K; 101.33 kPa; Liquid; Standard Abbe refractometry
[3] = for vapor or sublimation pressure / mass density: Liquid; for mass density: 298.15 K, 101.33 kPa; for surface tension liquid-gas: 303.15 K, Ring tensiometer

CC(C)OC(C)C [diisopropyl ether] + C1CCCCC1
[1]
Conditions	surface tension liquid-gas [mN/m]
x1 = 0.049	23.3
x1 = 0.098	22.7
x1 = 0.199	21.4
x1 = 0.301	20.7
x1 = 0.403	19.75
x1 = 0.509	19
x1 = 0.622	18.3
x1 = 0.727	17.8
x1 = 0.837	17.3
x1 = 0.936	16.9
x1 = 0.967	16.8

CC(C)=O [acetone]
Conditions	mass density [kg/m3]	refractive index	surface tension liquid-gas [mN/m]
[2]	–	1.35732	–
[3]	784.23	–	22.45

[3], Ebulliometric method (Recirculating still)
Conditions	vapor or sublimation pressure [kPa]
297.65 K	30.06
303.23 K	38.04
307.39 K	45.04
310.58 K	51.08
314.35 K	59.07
317.33 K	66.06
320.08 K	73.08
322.61 K	80.07
324.96 K	87.09
327.17 K	94.07
329.33 K	101.35

CC(C)=O [acetone] + C1CCCCC1
[1]
Conditions	surface tension liquid-gas [mN/m]
x1 = 0.047	23.85
x1 = 0.091	23.6
x1 = 0.185	23.1
x1 = 0.298	22.7
x1 = 0.403	22.4
x1 = 0.513	22.2
x1 = 0.621	22.1
x1 = 0.736	22.05
x1 = 0.842	22.15
x1 = 0.943	22.4

CC(C)OC(C)C [diisopropyl ether] + CC(C)=O
[1]
Conditions	surface tension liquid-gas [mN/m]
x2 = 0.046	16.75
x2 = 0.089	16.8
x2 = 0.187	16.95
x2 = 0.29	17.3
x2 = 0.39	17.65
x2 = 0.499	18.05
x2 = 0.61	18.6
x2 = 0.722	19.2
x2 = 0.829	20.15
x2 = 0.93	21.3
x2 = 0.973	21.94

C1CCCCC1 [cyclohexane]
Conditions	mass density [kg/m3]	refractive index	surface tension liquid-gas [mN/m]
[2]	–	1.42508	–
[3]	773.84	–	24.1

[3]
Conditions	vapor or sublimation pressure [kPa]
302.71 K	16.01
312.45 K	24.02
318.13 K	30.03
324.4 K	38.02
329.08 K	45.03
332.63 K	51.01
336.88 K	59.01
340.25 K	66.01
343.34 K	73.02
346.22 K	80.03
348.89 K	87.02
351.4 K	94.02
354.06 K	101.9

CC(C)OC(C)C [diisopropyl ether]
Conditions	mass density [kg/m3]	refractive index	surface tension liquid-gas [mN/m]
[2]	–	1.36644	–
[3]	718.34	–	16.7

[3], Ebulliometric method (Recirculating still)
Conditions	vapor or sublimation pressure [kPa]
293.25 K	16.02
302.42 K	24.02
307.79 K	30.02
313.73 K	38.02
318.15 K	45.02
321.52 K	51.01
325.55 K	59.01
328.74 K	66.01
331.67 K	73.01
334.38 K	80.01
336.91 K	87.01
